Results reported in PubChem BioAssay AID272 (DTP/NCI, 2004).
Inconclusive results are not listed.

System: Lewis lung carcinoma i.m., BDF1 mice, T/C %
Assay: NCI In Vivo Anticancer Drug Screen. Data for tumor model Lewis Lung Carcinoma (intramuscular) in B6D2F1 (BDF1) mice
Summary of the method: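 Antitumour activity is assessed in transplanted-tumour mice. Endpoint is survival or tumour size, normalised to vehicle-dosed controls (T/C).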

CCCCN(C)C(=S)S[Te](SC(=S)N(C)CCCC)(SC(=S)N(C)CCCC)SC(=S)N(C)CCCC
T/C (endpoint: mean tumor weight (est.), dose: 100.0 mg/kg/injection, schedule: Q01DX011 (ip), vehicle: saline, higher = larger tumour): 59 % of control | T/C (endpoint: mean tumor weight (est.), dose: 200.0 mg/kg/injection, schedule: Q01DX011 (ip), vehicle: saline, higher = larger tumour): 36 % of control | T/C (endpoint: mean tumor weight (est.), dose: 400.0 mg/kg/injection, schedule: Q01DX011 (ip), vehicle: saline, higher = larger tumour): 17 % of control | T/C (endpoint: median survival time, dose: 100.0 mg/kg/injection, schedule: Q01DX011 (ip), vehicle: saline, higher = longer survival): 114 % of control | T/C (endpoint: median survival time, dose: 200.0 mg/kg/injection, schedule: Q01DX011 (ip), vehicle: saline, higher = longer survival): 110 % of control | T/C (endpoint: median survival time, dose: 400.0 mg/kg/injection, schedule: Q01DX011 (ip), vehicle: saline, higher = longer survival): 121 % of control

CC(C(=O)O)N1C(=O)c2ccccc2C1=O (stereo unspecified)
T/C (endpoint: median survival time, dose: 4.0 mg/kg/injection, schedule: Q01DX009 (ip), vehicle: water, higher = longer survival): 110 % of control | T/C (endpoint: median survival time, dose: 8.0 mg/kg/injection, schedule: Q01DX009 (ip), vehicle: water, higher = longer survival): 107 % of control | T/C (endpoint: median survival time, dose: 16.0 mg/kg/injection, schedule: Q01DX009 (ip), vehicle: water, higher = longer survival): 103 % of control | T/C (endpoint: median survival time, dose: 32.0 mg/kg/injection, schedule: Q01DX009 (ip), vehicle: water, higher = longer survival): 108 % of control

O=C1C=C(SCCO)C(=O)c2ccccc21
T/C (endpoint: mean tumor weight (est.), dose: 0.75 mg/kg/injection, schedule: Q01DX011 (ip), vehicle: other, higher = larger tumour): 52 % of control | T/C (endpoint: mean tumor weight (est.), dose: 1.5 mg/kg/injection, schedule: Q01DX011 (ip), vehicle: other, higher = larger tumour): 40 % of control | T/C (endpoint: mean tumor weight (est.), dose: 3.0 mg/kg/injection, schedule: Q01DX011 (ip), vehicle: other, higher = larger tumour): 18 % of control | T/C (endpoint: median survival time, dose: 0.75 mg/kg/injection, schedule: Q01DX011 (ip), vehicle: other, higher = longer survival): 100 % of control | T/C (endpoint: median survival time, dose: 1.5 mg/kg/injection, schedule: Q01DX011 (ip), vehicle: other, higher = longer survival): 92 % of control | T/C (endpoint: median survival time, dose: 3.0 mg/kg/injection, schedule: Q01DX011 (ip), vehicle: other, higher = longer survival): 100 % of control

O=c1c(O)c(-c2ccc(O)c(O)c2)oc2cc(O)cc(O)c12
T/C (endpoint: median survival time, dose: 200.0 mg/kg/injection, schedule: Q02DX009 (ip), vehicle: saline, higher = longer survival): 102 % of control

CCCCCCCCCCCCCCCC[N+](C)(C)c1nc(Cl)nc(Cl)n1
T/C (endpoint: mean tumor weight (est.), dose: 7.5 mg/kg/injection, schedule: Q01DX011 (ip), vehicle: saline, higher = larger tumour): 92 % of control | T/C (endpoint: mean tumor weight (est.), dose: 15.0 mg/kg/injection, schedule: Q01DX011 (ip), vehicle: saline, higher = larger tumour): 65 % of control | T/C (endpoint: median survival time, dose: 7.5 mg/kg/injection, schedule: Q01DX011 (ip), vehicle: saline, higher = longer survival): 106 % of control | T/C (endpoint: median survival time, dose: 15.0 mg/kg/injection, schedule: Q01DX011 (ip), vehicle: saline, higher = longer survival): 112 % of control

COC(=O)C[C@](O)(CCCC(C)(C)O)C(=O)O[C@@H]1C(OC)=C[C@]23CCCN2CCc2cc4c(cc2[C@H]13)OCO4
T/C (endpoint: mean tumor weight (est.), dose: 0.25 mg/kg/injection, schedule: Q01DX011 (ip), vehicle: saline, higher = larger tumour): 60 % of control | T/C (endpoint: mean tumor weight (est.), dose: 0.5 mg/kg/injection, schedule: Q01DX011 (ip), vehicle: saline, higher = larger tumour): 57 % of control | T/C (endpoint: median survival time, dose: 0.25 mg/kg/injection, schedule: Q01DX011 (ip), vehicle: saline, higher = longer survival): 93 % of control

[N-]=[N+]=CC(=O)CCC(N)C(=O)O (stereo unspecified)
T/C (endpoint: mean tumor weight, dose: 7.5 micrograms/kg/injection, schedule: Q01DX011 (ip), vehicle: saline, higher = larger tumour): 107 % of control | T/C (endpoint: mean tumor weight, dose: 15.0 micrograms/kg/injection, schedule: Q01DX011 (ip), vehicle: saline, higher = larger tumour): 77 % of control | T/C (endpoint: mean tumor weight, dose: 30.0 micrograms/kg/injection, schedule: Q01DX011 (ip), vehicle: saline, higher = larger tumour): 75 % of control | T/C (endpoint: mean tumor weight, dose: 60.0 micrograms/kg/injection, schedule: Q01DX011 (ip), vehicle: saline, higher = larger tumour): 102 % of control | T/C (endpoint: median survival time, dose: 7.5 micrograms/kg/injection, schedule: Q01DX011 (ip), vehicle: saline, higher = longer survival): 114 % of control | T/C (endpoint: median survival time, dose: 30.0 micrograms/kg/injection, schedule: Q01DX011 (ip), vehicle: saline, higher = longer survival): 90 % of control | T/C (endpoint: median survival time, dose: 60.0 micrograms/kg/injection, schedule: Q01DX011 (ip), vehicle: saline, higher = longer survival): 90 % of control
